Paper PMC4447972, “Mechanism of the Association between Na^+ Binding and Conformations at the Intracellular Gate in Neurotransmitter:Sodium Symporters” (The Journal of Biological Chemistry, 2015)

Columns and labels:
[1] = target: T1, DAT (hDAT) (Homo sapiens, UniProt Q01959); details: read-out: DA Km; 130 mM NaCl, pH 7.4; 6 nM [3H]DA plus unlabelled DA; apparent affinity for uptake
T1 construct: gene SLC6A3

[2] = substrate: NCCc1ccc(O)c(O)c1; assay: cells, lysate or membranes; details: 130 mM NaCl, pH 7.4, 6 nM [3H]DA plus unlabelled DA, apparent affinity for uptake

T1 sequence (Q01959 whole entry): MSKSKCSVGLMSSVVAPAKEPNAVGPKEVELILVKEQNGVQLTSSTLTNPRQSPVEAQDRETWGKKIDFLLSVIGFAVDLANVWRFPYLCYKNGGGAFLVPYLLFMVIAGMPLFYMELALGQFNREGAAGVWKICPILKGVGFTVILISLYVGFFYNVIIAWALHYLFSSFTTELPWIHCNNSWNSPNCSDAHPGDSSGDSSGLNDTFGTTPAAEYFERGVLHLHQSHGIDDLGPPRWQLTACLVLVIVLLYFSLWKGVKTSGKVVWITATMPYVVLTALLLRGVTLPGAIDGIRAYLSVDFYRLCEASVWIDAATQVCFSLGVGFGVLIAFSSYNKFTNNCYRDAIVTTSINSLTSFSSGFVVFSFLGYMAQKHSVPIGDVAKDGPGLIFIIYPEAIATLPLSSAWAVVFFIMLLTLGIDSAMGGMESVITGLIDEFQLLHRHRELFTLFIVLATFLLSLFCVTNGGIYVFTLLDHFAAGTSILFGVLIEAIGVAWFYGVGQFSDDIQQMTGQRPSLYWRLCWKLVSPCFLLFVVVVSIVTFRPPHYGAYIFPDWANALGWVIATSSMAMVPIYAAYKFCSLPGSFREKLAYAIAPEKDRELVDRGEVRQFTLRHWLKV

Work on `NCCc1ccc(O)c(O)c1` [dopamine] yielded a Km [1] of 1.2 µM.

B1: DAT (hDAT) (Homo sapiens; D436A) (protein)
chain: MSKSKCSVGLMSSVVAPAKEPNAVGPKEVELILVKEQNGVQLTSSTLTNPRQSPVEAQDRETWGKKIDFLLSVIGFAVDLANVWRFPYLCYKNGGGAFLVPYLLFMVIAGMPLFYMELALGQFNREGAAGVWKICPILKGVGFTVILISLYVGFFYNVIIAWALHYLFSSFTTELPWIHCNNSWNSPNCSDAHPGDSSGDSSGLNDTFGTTPAAEYFERGVLHLHQSHGIDDLGPPRWQLTACLVLVIVLLYFSLWKGVKTSGKVVWITATMPYVVLTALLLRGVTLPGAIDGIRAYLSVDFYRLCEASVWIDAATQVCFSLGVGFGVLIAFSSYNKFTNNCYRDAIVTTSINSLTSFSSGFVVFSFLGYMAQKHSVPIGDVAKDGPGLIFIIYPEAIATLPLSSAWAVVFFIMLLTLGIDSAMGGMESVITGLIAEFQLLHRHRELFTLFIVLATFLLSLFCVTNGGIYVFTLLDHFAAGTSILFGVLIEAIGVAWFYGVGQFSDDIQQMTGQRPSLYWRLCWKLVSPCFLLFVVVVSIVTFRPPHYGAYIFPDWANALGWVIATSSMAMVPIYAAYKFCSLPGSFREKLAYAIAPEKDRELVDRGEVRQFTLRHWLKV
For B1, the Km [2] was 0.15 [0.13;0.18] μM.
